In ChEMBL document CHEMBL1201862, “PubChem BioAssay data set” (2004):
Where a name gives a salt, the structure may show the parent alone. Activity calls are given as the source filed them.

Columns and labels:
[1] = viability loss in THP-1 monocytes – THP-1 cells, cytotoxicity control for Vif-APOBEC3G degradation inhibitor project, dose response (AID 1117359); format: functional; conditions: THP-1
[2] = Luminescence Cell-Based Dose Response HTS to Identify Activators of Luciferase Translation or Activity in H4 […] Cells. [Related pubchem assays: 1829 (Project Summary), 1814 (Primary HTS)]; format: functional
[3] = Luminescence Cell-Based Dose Confirmation HTS to Identify Activators of 5'UTR Stem-Loop Driven Alpha-Synuclein mRNA Translation in H4 Neuroglioblastoma Cells. [Related pubchem assays: 1829 (Project Summary), 1814 (Primary HTS)]; format: functional
H4 = test: Luminescence Cell-Based Dose Response HTS to Identify Activators of 5'UTR Stem-Loop Driven Prion Protein mRNA Translation in H4 Neuroglioblastoma Cells. [Related pubchem assays: 1829 (Project Summary), 1814 (Primary HTS)]; format: functional; conditions: Homo sapiens
[4] = target: G-protein coupled receptor 35 (Homo sapiens, UniProt Q9HC97); test: inhibition of zaprinast-stimulated GPR35 beta-arrestin translocation – imaging, U2OS, beta-arrestin-GFP, zaprinast agonist, primary screen (AID 2058); format: functional;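 further: antagonist potency meaning inhibition of agonist-induced arrestin redistribution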
G-protein coupled receptor 35, sequence (Q9HC97 whole entry): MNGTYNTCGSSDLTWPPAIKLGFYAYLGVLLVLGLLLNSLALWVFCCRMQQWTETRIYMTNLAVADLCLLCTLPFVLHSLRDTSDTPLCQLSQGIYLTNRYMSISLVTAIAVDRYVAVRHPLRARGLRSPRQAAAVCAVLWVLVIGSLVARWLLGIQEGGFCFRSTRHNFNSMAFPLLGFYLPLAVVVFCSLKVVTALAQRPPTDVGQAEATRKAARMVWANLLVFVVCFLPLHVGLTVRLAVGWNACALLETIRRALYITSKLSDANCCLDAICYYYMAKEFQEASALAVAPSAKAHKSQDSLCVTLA

[5] = target: T1, Short transient receptor potential channel 4 (Mus musculus, UniProt Q9QUQ5); test: calcium entry via TRPC4 opening agents – cell-based, HEK293 TRPC4/mu-opioid, Fluo-4 calcium, dose response (AID 434937); format: functional
T1 sequence (Q9QUQ5 whole entry): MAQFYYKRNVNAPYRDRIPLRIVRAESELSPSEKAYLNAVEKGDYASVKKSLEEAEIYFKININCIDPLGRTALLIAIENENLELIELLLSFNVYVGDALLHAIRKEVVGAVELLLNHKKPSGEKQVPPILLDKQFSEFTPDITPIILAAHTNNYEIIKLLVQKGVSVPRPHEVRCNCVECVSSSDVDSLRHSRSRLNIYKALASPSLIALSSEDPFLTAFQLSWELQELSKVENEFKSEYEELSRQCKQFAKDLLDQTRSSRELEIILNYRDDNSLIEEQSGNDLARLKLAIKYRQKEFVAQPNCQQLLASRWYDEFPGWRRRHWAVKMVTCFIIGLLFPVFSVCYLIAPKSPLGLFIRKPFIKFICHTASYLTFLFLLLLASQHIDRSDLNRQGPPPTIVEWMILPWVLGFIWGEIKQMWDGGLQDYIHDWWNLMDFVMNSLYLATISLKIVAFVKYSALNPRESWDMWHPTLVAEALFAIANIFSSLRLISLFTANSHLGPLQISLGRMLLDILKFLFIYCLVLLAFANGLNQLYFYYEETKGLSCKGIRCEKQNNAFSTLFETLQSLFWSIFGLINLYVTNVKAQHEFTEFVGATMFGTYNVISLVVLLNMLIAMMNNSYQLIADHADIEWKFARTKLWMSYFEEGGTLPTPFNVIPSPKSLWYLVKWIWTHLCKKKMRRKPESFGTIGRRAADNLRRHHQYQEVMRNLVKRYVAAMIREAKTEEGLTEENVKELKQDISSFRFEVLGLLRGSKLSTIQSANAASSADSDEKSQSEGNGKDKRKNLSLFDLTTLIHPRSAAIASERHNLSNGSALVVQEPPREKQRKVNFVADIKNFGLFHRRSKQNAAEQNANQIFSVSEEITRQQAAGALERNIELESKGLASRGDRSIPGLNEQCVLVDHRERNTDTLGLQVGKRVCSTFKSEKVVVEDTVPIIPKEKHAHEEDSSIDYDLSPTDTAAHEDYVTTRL

Estrogen receptor = target: T2, Estrogen receptor (Homo sapiens, UniProt P03372);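 further: potency for inhibiting coactivator peptide recruitment to the receptor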
T2 sequence (P03372 whole entry): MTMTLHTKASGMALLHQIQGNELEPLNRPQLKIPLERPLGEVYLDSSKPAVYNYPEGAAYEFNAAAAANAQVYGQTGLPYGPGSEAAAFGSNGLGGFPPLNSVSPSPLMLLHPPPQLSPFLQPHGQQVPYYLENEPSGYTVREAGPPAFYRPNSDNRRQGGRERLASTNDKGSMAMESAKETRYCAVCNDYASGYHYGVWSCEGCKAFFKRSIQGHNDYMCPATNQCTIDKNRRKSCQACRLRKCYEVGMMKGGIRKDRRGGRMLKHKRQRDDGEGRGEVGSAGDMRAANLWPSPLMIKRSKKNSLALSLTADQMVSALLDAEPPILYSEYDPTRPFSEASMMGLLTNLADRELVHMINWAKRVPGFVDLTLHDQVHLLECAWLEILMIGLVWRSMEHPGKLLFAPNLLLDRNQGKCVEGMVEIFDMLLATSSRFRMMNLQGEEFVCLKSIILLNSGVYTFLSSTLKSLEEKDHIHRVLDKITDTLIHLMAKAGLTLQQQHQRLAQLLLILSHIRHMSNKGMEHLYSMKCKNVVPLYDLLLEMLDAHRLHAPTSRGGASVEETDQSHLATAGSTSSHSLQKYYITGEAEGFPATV

cells [6] = format: functional, cell-based
cells [7] = format: functional, cell-based; remark: listed apart in the source
[8] = target: T3, Aryl hydrocarbon receptor (Homo sapiens, UniProt P35869); test: Luminescence-based cell-based high throughput dose response assay for activators of the Aryl Hydrocarbon Receptor (AHR). [Related pubchem assays: 2796 (Primary screen (AHR activators in singlicate)), 2845 (Confirmation screen (AHR activators in triplicate)), 434939 (Counterscreen (PXR activators in triplicate)), 2804 (Summary (AHR activators))]; format: ADME
T3 sequence (P35869 whole entry): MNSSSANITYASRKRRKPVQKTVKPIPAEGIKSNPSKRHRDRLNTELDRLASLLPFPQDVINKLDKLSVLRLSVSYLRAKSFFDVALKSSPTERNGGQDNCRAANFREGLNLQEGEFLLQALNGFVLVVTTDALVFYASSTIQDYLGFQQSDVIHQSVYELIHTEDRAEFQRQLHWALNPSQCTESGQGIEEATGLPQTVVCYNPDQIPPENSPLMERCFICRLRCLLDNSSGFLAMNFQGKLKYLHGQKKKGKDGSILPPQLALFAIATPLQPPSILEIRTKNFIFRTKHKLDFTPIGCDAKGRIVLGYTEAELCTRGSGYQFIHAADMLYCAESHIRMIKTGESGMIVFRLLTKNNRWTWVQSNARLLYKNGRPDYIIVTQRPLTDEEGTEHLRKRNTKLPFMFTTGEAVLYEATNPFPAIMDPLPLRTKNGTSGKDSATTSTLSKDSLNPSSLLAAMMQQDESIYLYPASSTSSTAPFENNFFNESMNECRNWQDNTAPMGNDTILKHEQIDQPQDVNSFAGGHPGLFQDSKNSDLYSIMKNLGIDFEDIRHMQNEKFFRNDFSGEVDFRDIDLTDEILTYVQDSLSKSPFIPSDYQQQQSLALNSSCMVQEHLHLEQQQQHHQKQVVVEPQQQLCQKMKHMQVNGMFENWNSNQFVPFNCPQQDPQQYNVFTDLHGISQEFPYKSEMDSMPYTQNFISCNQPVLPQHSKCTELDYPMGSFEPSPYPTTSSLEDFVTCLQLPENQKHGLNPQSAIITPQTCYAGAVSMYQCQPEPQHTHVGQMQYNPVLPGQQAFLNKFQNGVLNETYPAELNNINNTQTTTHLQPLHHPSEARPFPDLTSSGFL

NADPH oxidase 1 = target: T4, NADPH oxidase 1 (Homo sapiens, UniProt Q9Y5S8); format: functional, cell-based;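 further: Cell-based assay with luminescence read-out, IC50 derived from inhibitor dose-response curves; intracellular ROS from endogenous NOX1 in intact HT29 colon cancer cells; potency of inhibitors that lower the ROS luminescence signal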
T4 sequence (Q9Y5S8 whole entry): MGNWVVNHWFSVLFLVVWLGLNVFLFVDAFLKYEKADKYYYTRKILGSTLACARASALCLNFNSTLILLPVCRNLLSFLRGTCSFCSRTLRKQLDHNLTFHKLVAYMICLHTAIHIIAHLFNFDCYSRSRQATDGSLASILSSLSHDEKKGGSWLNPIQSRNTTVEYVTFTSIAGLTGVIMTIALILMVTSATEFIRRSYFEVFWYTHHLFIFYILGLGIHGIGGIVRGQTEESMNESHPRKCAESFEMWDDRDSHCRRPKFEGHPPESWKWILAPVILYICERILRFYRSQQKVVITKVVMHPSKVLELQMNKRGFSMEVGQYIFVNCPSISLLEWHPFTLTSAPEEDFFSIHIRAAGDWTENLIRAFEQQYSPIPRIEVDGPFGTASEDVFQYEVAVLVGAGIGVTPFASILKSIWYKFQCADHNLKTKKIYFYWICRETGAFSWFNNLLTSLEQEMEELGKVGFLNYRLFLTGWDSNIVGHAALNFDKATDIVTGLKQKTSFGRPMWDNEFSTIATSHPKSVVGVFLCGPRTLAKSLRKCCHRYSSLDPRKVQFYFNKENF

[9] = target: G-protein coupled receptor 55 (Homo sapiens, UniProt Q9Y2T6); test: selective activators of receptor GPR55 – imaging, U2OS cells, beta-arrestin-GFP redistribution, primary screen (AID 1961); format: functional
G-protein coupled receptor 55, sequence (Q9Y2T6 whole entry): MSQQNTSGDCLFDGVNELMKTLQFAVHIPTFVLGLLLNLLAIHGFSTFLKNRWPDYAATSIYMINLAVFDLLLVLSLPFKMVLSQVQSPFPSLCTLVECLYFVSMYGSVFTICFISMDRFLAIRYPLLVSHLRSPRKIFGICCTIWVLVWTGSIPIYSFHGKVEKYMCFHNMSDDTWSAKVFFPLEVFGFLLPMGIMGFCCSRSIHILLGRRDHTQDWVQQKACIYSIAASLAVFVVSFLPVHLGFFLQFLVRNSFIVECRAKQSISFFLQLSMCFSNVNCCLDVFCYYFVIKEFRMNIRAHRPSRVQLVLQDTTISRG

[10] = target: DNA dC->dU-editing enzyme APOBEC-3A (Homo sapiens, UniProt P31941); test: Dose Response confirmation of small molecule APOBEC3A DNA Deaminase Inhibitors via a fluorescence-based single-stranded DNA deaminase assay. [Related pubchem assays (depositor defined):AID493011, AID493024]; format: functional
DNA dC->dU-editing enzyme APOBEC-3A, sequence (P31941 whole entry): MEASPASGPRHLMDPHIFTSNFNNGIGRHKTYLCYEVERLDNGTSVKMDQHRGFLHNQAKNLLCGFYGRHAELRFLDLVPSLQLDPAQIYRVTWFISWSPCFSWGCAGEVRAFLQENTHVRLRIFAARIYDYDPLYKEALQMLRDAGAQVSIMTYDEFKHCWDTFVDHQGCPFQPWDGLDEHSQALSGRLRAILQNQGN

[11] = target: DNA dC->dU-editing enzyme APOBEC-3G (Homo sapiens, UniProt Q9HC16); format: functional;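 further: Dose-response counterscreen measuring inhibition of APOBEC3G DNA deaminase activity, run while confirming APOBEC3A inhibitors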
DNA dC->dU-editing enzyme APOBEC-3G, sequence (Q9HC16 whole entry): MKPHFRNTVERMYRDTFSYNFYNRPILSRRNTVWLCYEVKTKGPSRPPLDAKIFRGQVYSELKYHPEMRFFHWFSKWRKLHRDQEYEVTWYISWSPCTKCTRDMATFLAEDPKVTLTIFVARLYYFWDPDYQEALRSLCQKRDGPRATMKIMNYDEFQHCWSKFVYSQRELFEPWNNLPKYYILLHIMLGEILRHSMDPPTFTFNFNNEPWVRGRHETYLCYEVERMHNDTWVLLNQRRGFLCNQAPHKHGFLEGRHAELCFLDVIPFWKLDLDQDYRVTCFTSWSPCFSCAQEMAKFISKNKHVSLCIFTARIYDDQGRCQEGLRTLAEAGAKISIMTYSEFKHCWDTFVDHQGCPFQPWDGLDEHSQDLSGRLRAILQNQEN

[12] = target: T5, Rac GTPase-activating protein 1 (Homo sapiens, UniProt Q9H0H5); test: blockers of MgcRacGAP-driven Rac1 GTP hydrolysis – biochemical, ADP Hunter fluorescence, primary and confirmatory, confirmation (AID 624330); format: functional
T5 sequence (Q9H0H5 whole entry): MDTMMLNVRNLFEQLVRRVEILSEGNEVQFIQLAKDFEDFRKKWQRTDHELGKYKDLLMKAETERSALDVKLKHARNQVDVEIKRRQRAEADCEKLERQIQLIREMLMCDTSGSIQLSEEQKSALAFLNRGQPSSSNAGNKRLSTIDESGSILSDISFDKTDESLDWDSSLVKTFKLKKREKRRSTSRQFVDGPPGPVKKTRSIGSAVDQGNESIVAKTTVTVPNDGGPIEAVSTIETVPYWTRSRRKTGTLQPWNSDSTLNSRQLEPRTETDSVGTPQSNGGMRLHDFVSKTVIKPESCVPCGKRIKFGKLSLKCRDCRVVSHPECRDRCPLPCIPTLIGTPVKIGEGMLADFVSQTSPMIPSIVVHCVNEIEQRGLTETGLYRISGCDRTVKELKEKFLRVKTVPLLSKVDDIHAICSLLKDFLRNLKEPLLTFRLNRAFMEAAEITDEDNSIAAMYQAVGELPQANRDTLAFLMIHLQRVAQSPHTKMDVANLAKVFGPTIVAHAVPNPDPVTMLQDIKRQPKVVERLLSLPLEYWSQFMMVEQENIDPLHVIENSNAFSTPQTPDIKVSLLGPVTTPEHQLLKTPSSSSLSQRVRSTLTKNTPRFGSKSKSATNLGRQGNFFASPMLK

[13] = target: FAD-linked sulfhydryl oxidase ALR (Homo sapiens, UniProt P55789); test: ALR-catalysed DTT oxidation blockers – biochemical, H2O2 detection, luminescence, cherry-pick, dose response (AID 493248)
FAD-linked sulfhydryl oxidase ALR, sequence (P55789 whole entry): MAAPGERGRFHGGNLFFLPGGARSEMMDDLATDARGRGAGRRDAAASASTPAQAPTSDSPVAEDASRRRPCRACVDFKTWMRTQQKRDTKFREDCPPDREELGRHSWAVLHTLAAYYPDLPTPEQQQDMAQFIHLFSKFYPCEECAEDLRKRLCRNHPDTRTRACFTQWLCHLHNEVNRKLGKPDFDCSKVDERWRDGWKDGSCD

[14] = viability loss in HeLa cells – cytotoxicity control for MgcRacGAP inhibitor project, dose response (AID 624300); format: functional
[15] = viability of uninfected HEp-2 cells – cell-based, HTS, cytotoxicity control for RSV inhibitor project, dose response (AID 2410); format: functional; conditions: human respiratory syncytial virus
[16] = P. falciparum Dd2 growth inhibitors, dose response, SYBR Green, cherry-picked samples (AID 1159567); format: functional, cell-based
[17] = toxicity to human hepatoma HepG2 cells – cell-based, cherry-picked samples, cytotoxicity control, dose response (AID 1159577); format: functional
[18] = toxicity to human HepG2 hepatoma cells – cell-based, plate reader, dry powder samples, cytotoxicity control, dose response (AID 1159569); format: functional;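 further: inhibitor potency with signal falling toward the positive control level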
[19] = growth inhibition of yeast DHODH-expressing 3D7 parasites – SYBR Green, dry powder samples, dose response (AID 1159570); format: functional, cell-based;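 further: parasite growth measured after 72 hours of compound exposure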
[20] = Dd2 malaria parasite growth inhibition potency – SYBR Green, dry powder samples, dose response (AID 1159566); format: functional, cell-based;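 further: potency for growth inhibition with lower SYBR green DNA signal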
[21] = growth inhibition of PfATP4-mutant resistant parasites – NITD609-resistant line, SYBR Green, dry powder, dose response (AID 1159571); format: functional, cell-based;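 further: parasites synchronized at ring stage by sorbitol before testing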

Compound: NC(=O)c1ccccc1NC(=O)/C=C/c1ccc(Cl)cc1
- CC50 [1]: > 40 µM (active)

Compound: CN(C)c1ccc(-c2sc(Nc3ccccc3)n[n+]2-c2ccc(F)cc2)cc1
- EC50 [2]: 17.8 µM (active)
- EC50 [3]: > 120 µM (not active)
- EC50 (H4): > 120 µM (not active)
- IC50 [4]: 1.33 µM (active)
- EC50 [5]: 10.6 µM (active)

Compound: COc1ccc(C2CC(c3c(O)nc4ccc(Cl)cc4c3-c3ccccc3)=NN2S(C)(=O)=O)cc1OC (stereo unspecified)
- IC50 (Estrogen receptor): 12.4 µM (active)

Compound: COc1cc2ccccc2cc1C(=O)Nc1ccc(C)cc1
- EC50 (cells [6]): 29.2 µM (active)
- EC50 (cells [7]): > 350 µM (not active)
- EC50 [8]: 0.394 µM (active)

Compound: O=C(Nc1nc2ccccc2s1)c1ccc(N2CCCCC2)c([N+](=O)[O-])c1
- IC50 [4]: 1.12 µM (active)

Compound: Fc1ccc2c(c1)Sc1ccccc1N2
- IC50 (NADPH oxidase 1): 0.24 µM (active)

Compound: Cc1ccccc1OCCC(=O)Nc1cc(S(=O)(=O)N2CCOCC2)ccc1OC(C)C
- EC50 [9]: 4.27 µM (active)

Compound: O=C(NCCC1CCCCN1S(=O)(=O)c1ccc(F)cc1)C(=O)NCc1ccccn1 (stereo unspecified)
- CC50 [1]: > 40 µM (active)

Compound: C#CCn1cc(/C=N/NC(=O)COc2cccc3cccnc23)c2ccccc21
- IC50 [10]: > 100 µM (inactive)
- IC50 [11]: > 100 µM (inactive)
- EC50 [8]: > 0.377 µM (active)

Compound: O=S(=O)(/N=C(\Sc1ccc(Cl)cc1)c1ccccc1)c1ccccc1
- IC50 (Estrogen receptor): > 50 µM (not active)

Compound: COc1ccc(/C=N/Nc2nc3ccccc3[nH]2)cc1OC
- IC50 [12]: 74 µM (active)
- AC50 [13]: 0.285 µM (active)
- CC50 [14]: 100 µM (active)
- CC50 [15]: 20.8 µM (active)
- EC50 [8]: 3.46 µM (active)

Compound: C[C@@H]1CN([C@H](C)CO)C(=O)c2cc(C#Cc3ccccc3)cnc2O[C@H]1CN(C)C(=O)CCN1CCCCC1
- AC50 [16]: 2.23 µM (active)
- AC50 [17]: 35.6 µM (active)
- AC50 [18]: 22.9 µM (active)
- AC50 [19]: 2.34 µM (active)
- AC50 [20]: 1.49 µM (active)
- AC50 [21]: 1.79 µM (active)

Compound: CN(C)CCCN1c2ccccc2Sc2ccccc21 [PROMAZINE HYDROCHLORIDE]
- AC50 [13]: 1.28 µM (active)
- IC50 (NADPH oxidase 1): > 17 µM (not active)
